Consider 1 molecule from article PMC3654204, “2-Aminoethoxydiphenyl borate activates the mechanically gated human KCNK channels KCNK 2 (TREK-1), KCNK 4 (TRAAK), and KCNK 10 (TREK-2)” (Frontiers in Pharmacology, 2013).

Common to all, as to test: two-electrode voltage clamp, Xenopus oocytes, current at +[…] mV
Assay type in all cases: cell-based

The target in one assay is T1, hKCNK2 (hTREK-1) (Homo sapiens, UniProt O95069).
T1 construct: gene KCNK2; full-length cDNA clone in pDNR-dual purchased from Imagenes, subcloned into pSGEM; cRNA injected in Xenopus laevis oocytes; K2P channels are homodimers
T1 sequence (O95069 1-426): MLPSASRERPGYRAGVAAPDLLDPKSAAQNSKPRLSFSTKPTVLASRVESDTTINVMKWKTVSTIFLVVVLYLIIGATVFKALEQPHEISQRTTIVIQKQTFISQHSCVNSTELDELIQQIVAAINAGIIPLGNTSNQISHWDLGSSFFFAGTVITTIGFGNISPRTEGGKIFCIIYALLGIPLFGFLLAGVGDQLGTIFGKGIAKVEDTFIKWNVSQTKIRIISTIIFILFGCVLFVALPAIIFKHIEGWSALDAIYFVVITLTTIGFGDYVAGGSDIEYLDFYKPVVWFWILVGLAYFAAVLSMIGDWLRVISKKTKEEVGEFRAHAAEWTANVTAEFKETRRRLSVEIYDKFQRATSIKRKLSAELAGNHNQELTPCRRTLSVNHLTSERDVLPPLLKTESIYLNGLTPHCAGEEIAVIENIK

The next assay deals with T2, hKCNK4 (hTRAAK) (Homo sapiens, UniProt Q9NYG8).
T2 construct: gene KCNK4; full-length cDNA clone in pBluescript SK+ purchased from Imagenes; cRNA injected in Xenopus laevis oocytes, pCDNA3 in HEK293; K2P channels are homodimers
T2 sequence (Q9NYG8 1-393): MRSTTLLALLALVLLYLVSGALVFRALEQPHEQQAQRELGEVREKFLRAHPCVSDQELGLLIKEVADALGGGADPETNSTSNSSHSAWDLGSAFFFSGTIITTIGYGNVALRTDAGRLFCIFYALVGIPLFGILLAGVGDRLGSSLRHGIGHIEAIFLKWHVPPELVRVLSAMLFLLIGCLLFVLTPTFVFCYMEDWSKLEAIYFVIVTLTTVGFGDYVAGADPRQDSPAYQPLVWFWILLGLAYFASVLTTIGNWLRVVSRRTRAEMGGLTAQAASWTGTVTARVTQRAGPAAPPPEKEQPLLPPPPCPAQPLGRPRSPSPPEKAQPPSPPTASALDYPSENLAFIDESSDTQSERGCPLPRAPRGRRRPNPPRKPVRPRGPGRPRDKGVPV
Particulars: activator; frog Ringer's solution, pH 7.2; EC50 could not be determined; also active in inside-out HEK293 patches.

In the next assay the target is T3, hKCNK10 (TREK-2) (Homo sapiens, UniProt P57789).
T3 construct: gene KCNK10; full-length cDNA clone purchased from Imagenes, subcloned into pSGEM (cRNA, Xenopus laevis oocytes) and pCDNA3 (HEK293); K2P channels are homodimers
T3 sequence (P57789 1-538): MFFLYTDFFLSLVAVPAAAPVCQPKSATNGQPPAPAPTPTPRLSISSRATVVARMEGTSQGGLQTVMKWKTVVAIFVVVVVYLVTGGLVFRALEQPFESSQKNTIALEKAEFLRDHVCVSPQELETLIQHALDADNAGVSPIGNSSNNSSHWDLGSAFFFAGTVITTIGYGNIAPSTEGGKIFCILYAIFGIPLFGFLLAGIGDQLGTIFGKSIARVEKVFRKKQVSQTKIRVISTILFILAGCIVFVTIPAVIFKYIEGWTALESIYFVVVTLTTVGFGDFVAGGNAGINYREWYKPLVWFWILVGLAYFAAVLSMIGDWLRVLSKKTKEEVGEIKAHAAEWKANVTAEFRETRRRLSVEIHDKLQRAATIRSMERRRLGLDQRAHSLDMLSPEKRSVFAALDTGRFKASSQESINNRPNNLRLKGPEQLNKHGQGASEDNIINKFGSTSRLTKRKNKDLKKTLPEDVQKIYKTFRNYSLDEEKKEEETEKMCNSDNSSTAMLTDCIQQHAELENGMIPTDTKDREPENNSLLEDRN

Take `NCCOB(c1ccccc1)c1ccccc1` [2-APB]: the EC50 (commonly the concentration that produces a half-maximal response) on hKCNK2 (hTREK-1) amounted to 486 ± 135 µM; on hKCNK10 (TREK-2) it was 1220 ± 390 µM. Further, the “fold of basal current at 1 mM” value on hKCNK4 (hTRAAK) is 2.68 ± 0.2 fold.
